Results on seven compounds are retold here after patent publication US11173162B2, “Bicyclic heterocycles as FGFR4 inhibitors” (Incyte Corporation, priority 2015, dated 2021).

The subject of one assay is FGFR3 enzyme. Description: FGFR Enzymatic Assay (FRET peptide phosphorylation), FGFR3. Type of assay: biochemical. As to conditions: IC50 ratio showing FGFR3 selectivity; Table 2A, pre-incubated for 4 hours. How it is done:
(§1) The inhibitor potency of the exemplified compounds was measured in an enzyme assay that measures peptide phosphorylation using FRET measurements to detect product formation. Inhibitors were serially diluted in DMSO and a volume of 0.5 μL was transferred to the wells of a 384-well plate.
(§2) GraphPad prism3 was used to analyze the data.

For another assay, the target named is FGFR4 (Homo sapiens (Human), UniProt P22455). Description: FGFR Enzymatic Assay (FRET peptide phosphorylation), FGFR4. Type of assay: biochemical. How it is done:
as §1
The enzymes were purchased from Millipore or Invitrogen.
as §2

Setting [1] is: IC50 ratio showing FGFR4 selectivity, Table 2, pre-incubated for 4 hours.
[2] abbreviates: ratio of IC50 data showing FGFR4 selectivity, Table 4, pre-incubated for 5 to 10 minutes.

Sequence of FGFR4 (P22455 22-802): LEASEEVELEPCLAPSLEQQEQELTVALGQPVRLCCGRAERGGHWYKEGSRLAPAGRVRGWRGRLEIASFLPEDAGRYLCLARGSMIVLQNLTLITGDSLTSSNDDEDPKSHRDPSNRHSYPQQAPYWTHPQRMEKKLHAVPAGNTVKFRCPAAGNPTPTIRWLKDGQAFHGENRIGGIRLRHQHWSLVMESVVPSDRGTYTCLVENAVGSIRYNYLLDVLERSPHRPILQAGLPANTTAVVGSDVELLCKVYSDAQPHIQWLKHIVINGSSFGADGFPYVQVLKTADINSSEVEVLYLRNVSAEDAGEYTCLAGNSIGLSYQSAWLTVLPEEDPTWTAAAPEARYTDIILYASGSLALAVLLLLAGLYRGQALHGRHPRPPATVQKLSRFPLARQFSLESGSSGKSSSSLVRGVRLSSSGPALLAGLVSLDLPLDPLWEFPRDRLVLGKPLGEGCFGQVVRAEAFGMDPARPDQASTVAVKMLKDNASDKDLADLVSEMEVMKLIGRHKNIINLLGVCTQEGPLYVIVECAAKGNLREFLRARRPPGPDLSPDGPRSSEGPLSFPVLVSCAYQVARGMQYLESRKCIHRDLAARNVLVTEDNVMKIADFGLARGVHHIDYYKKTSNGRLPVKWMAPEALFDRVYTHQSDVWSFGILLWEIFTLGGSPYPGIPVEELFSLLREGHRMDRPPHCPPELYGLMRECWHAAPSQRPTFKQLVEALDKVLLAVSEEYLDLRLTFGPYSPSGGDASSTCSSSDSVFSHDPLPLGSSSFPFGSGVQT

As to `COc1cc(OC)c(F)c(N2Cc3cnc(-c4cncc(NS(C)(=O)=O)c4)cc3C3(CC3)C2=O)c1F` [Example 15, N-(5-(2′-(2,6-difluoro-3,5-dimethoxyphenyl)-3′-oxo-2′,3′-dihydro-1′H-spiro[cyclopropane-1,4′-[2,7]naphthyridine]-6′-yl)pyridin-3-yl)methanesulfonamide], the FGFR1/FGFR3 in the assay on FGFR3 enzyme is listed as more than 3. At FGFR4 (setting [1]), the FGFR1/FGFR4 is more than 50, the FGFR2/FGFR4 is more than 25 and the FGFR3/FGFR4 is on record as more than 10. Moreover, at FGFR4 (setting [2]), the FGFR1/FGFR4 was more than 50, the FGFR2/FGFR4 was more than 25 and the FGFR3/FGFR4 is more than 10.
Take `COc1cc(OC)c(F)c(N2Cc3cnc(-c4cc(N)cnc4C)cc3C3(CC3)C2=O)c1F` [Example 7, 6′-(5-amino-2-methylpyridin-3-yl)-2′-(2,6-difluoro-3,5-dimethoxyphenyl)-1′H-spiro[cyclopropane-1,4′-[2,7]naphthyridin]-3′(2′H)-one]: the FGFR1/FGFR3 in the assay with FGFR3 enzyme is given as more than 1. Also, on FGFR4 (setting [1]), the FGFR1/FGFR4 is on record as more than 50, the FGFR2/FGFR4 is more than 25 and the FGFR3/FGFR4 is more than 25. Moreover, at FGFR4 (setting [2]), the FGFR1/FGFR4 is more than 25, the FGFR2/FGFR4 is reported as more than 10 and the FGFR3/FGFR4 was more than 10.
For the compound `COc1cc(OC)c(F)c(N2Cc3cnc(-c4cncc(C#N)c4)cc3C3(CC3)C2=O)c1F` [Example 8, 5-(2′-(2,6-difluoro-3,5-dimethoxyphenyl)-3′-oxo-2′,3′-dihydro-1′H-spiro[cyclopropane-1,4′-[2,7]naphthyridine]-6′-yl)nicotinonitrile], in the assay on FGFR3 enzyme, the FGFR1/FGFR3 is more than 5. Moreover, on FGFR4 (setting [1]), the FGFR1/FGFR4 is reported as more than 50, the FGFR2/FGFR4 is listed as more than 10 and the FGFR3/FGFR4 is given as more than 10. On FGFR4 (setting [2]), the FGFR1/FGFR4 is more than 50, the FGFR2/FGFR4 is given as more than 10 and the FGFR3/FGFR4 is more than 10.
With `COc1cc(OC)c(F)c(N2Cc3cnc(-c4cncc(F)c4)cc3C3(CC3)C2=O)c1F` [Example 5, 2′-(2,6-difluoro-3,5-dimethoxyphenyl)-6′-(5-fluoropyridin-3-yl)-1′H-spiro[cyclopropane-1,4′-[2,7]naphthyridin]-3′(2′H)-one], in the assay on FGFR3 enzyme, the FGFR1/FGFR3 was more than 3. For the same compound, on FGFR4 (setting [1]), the FGFR1/FGFR4 is more than 10, the FGFR2/FGFR4 is reported as more than 5 and the FGFR3/FGFR4 was more than 1. On FGFR4 (setting [2]), the FGFR1/FGFR4 is given as more than 10, the FGFR2/FGFR4 is recorded as more than 5 and the FGFR3/FGFR4 was more than 4.
`COc1cc(OC)c(F)c(N2Cc3cnc(-c4cncc(C(=O)N5CCOCC5)c4)cc3C3(CC3)C2=O)c1F` [Example 13, 2′-(2,6-difluoro-3,5-dimethoxyphenyl)-6′-(5-(morpholine-4-carbonyl)pyridin-3-yl)-1′H-spiro[cyclopropane-1,4′-[2,7]naphthyridin]-3′(2′H)-one]: the FGFR1/FGFR3 in the assay on FGFR3 enzyme is more than 3. At FGFR4 (setting [1]), the FGFR1/FGFR4 is listed as more than 50, the FGFR2/FGFR4 was more than 25 and the FGFR3/FGFR4 is given as more than 10. Further, at FGFR4 (setting [2]), the FGFR1/FGFR4 is more than 50, the FGFR2/FGFR4 is recorded as more than 20 and the FGFR3/FGFR4 is on record as more than 10.
Turning to `COc1cc(OC)c(F)c(N2Cc3cnc(-c4cncc(CN5CCOCC5)c4)cc3C3(CC3)C2=O)c1F` [Example 16, 2′-(2,6-difluoro-3,5-dimethoxyphenyl)-6′-(5-(morpholinomethyl)pyridin-3-yl)-1′H-spiro[cyclopropane-1,4′-[2,7]naphthyridin]-3′(2′H)-one], the FGFR1/FGFR3 in the assay on FGFR3 enzyme is reported as more than 1. Besides, on FGFR4 (setting [1]), the FGFR1/FGFR4 was more than 50, the FGFR2/FGFR4 is listed as more than 25 and the FGFR3/FGFR4 is more than 10. On FGFR4 (setting [2]), the FGFR1/FGFR4 is more than 25, the FGFR2/FGFR4 is given as more than 10 and the FGFR3/FGFR4 is recorded as more than 10.
`COc1cc(OC)c(F)c(N2Cc3cnc(-c4cncc(S(=O)(=O)N5CCOCC5)c4)cc3C3(CC3)C2=O)c1F` [Example 14, 2′-(2,6-difluoro-3,5-dimethoxyphenyl)-6′-(5-(morpholinosulfonyl)pyridin-3-yl)-1′H-spiro[cyclopropane-1,4′-[2,7]naphthyridin]-3′(2′H)-one]: the FGFR1/FGFR3 in the assay with FGFR3 enzyme was more than 5. Also, on FGFR4 (setting [1]), the FGFR1/FGFR4 is reported as more than 50, the FGFR2/FGFR4 is on record as more than 10 and the FGFR3/FGFR4 was more than 1. Moreover, on FGFR4 (setting [2]), the FGFR1/FGFR4 is listed as more than 25, the FGFR2/FGFR4 was more than 5 and the FGFR3/FGFR4 is recorded as more than 5.
